For assay [1], the target named is Receptor-interacting serine/threonine-protein kinase 3 (Homo sapiens, UniProt Q9Y572).
Assay [2] deals with Protein kinase C beta type (Homo sapiens, UniProt P05771).
The target of assay [3] is T1, Serine/threonine-protein kinase Nek9 (Homo sapiens, UniProt Q8TD19).
T1 sequence (Q8TD19 whole entry): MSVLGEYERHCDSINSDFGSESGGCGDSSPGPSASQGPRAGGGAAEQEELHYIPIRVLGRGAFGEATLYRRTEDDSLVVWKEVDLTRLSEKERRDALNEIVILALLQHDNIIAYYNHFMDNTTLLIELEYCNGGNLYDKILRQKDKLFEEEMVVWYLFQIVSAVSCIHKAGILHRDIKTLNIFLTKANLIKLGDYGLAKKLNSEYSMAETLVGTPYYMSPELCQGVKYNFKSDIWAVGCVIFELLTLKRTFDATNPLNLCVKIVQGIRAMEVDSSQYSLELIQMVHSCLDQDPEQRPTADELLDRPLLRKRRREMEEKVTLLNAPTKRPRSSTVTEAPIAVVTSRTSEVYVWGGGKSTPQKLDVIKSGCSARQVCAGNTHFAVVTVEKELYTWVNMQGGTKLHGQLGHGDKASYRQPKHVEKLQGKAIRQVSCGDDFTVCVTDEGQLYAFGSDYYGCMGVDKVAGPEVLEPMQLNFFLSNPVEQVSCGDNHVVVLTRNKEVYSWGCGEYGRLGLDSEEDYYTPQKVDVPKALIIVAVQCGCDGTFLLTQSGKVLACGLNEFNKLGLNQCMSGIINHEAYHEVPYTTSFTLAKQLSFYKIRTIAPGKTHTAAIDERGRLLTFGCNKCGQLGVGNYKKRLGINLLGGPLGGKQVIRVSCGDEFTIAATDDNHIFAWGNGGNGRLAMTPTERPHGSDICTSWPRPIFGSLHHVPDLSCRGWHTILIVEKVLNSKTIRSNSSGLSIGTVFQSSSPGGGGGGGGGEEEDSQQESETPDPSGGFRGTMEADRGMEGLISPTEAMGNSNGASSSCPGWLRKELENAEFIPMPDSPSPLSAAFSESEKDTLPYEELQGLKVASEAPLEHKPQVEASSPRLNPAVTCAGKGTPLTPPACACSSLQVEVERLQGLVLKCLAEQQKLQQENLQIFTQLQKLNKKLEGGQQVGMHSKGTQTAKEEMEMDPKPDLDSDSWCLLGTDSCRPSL

Another assay concerns the target T2, TGF-beta receptor type-1 (Homo sapiens, UniProt P36897).
T2 sequence (P36897 whole entry): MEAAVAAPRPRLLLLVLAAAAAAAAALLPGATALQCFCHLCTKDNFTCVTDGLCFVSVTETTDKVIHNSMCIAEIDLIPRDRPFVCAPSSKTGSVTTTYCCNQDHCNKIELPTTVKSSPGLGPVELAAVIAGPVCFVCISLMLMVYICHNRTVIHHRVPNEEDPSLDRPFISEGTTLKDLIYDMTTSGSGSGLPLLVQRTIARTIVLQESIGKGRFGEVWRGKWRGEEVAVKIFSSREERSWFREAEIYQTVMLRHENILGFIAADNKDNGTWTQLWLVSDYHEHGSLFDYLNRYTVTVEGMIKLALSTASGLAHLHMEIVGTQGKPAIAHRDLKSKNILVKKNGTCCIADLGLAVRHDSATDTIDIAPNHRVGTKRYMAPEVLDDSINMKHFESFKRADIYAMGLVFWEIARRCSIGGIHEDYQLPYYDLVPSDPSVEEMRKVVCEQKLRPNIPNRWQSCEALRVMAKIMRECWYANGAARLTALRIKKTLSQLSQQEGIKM

For assay [4], the target named is T3, Peroxisomal acyl-coenzyme A oxidase 3 (Homo sapiens, UniProt O15254).
T3 sequence (O15254 whole entry): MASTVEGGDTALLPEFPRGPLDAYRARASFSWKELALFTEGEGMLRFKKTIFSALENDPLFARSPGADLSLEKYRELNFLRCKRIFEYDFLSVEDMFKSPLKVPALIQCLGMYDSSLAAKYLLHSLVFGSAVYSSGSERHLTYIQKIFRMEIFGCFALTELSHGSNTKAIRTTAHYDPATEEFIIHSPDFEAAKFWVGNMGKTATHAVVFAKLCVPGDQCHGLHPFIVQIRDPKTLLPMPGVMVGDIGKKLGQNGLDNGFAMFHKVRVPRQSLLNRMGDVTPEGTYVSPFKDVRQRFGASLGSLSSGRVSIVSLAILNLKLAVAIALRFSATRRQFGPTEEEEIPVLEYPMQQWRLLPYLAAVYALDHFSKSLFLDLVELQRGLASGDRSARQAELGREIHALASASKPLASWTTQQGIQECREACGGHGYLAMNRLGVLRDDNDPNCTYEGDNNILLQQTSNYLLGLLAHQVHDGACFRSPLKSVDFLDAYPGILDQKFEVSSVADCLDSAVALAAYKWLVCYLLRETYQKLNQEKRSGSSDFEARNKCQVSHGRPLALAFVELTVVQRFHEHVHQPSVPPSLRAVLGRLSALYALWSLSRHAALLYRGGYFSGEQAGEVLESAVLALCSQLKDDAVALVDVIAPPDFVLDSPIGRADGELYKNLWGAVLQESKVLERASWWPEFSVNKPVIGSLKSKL

Assay [5] addresses Mitogen-activated protein kinase kinase kinase 20 (Homo sapiens, UniProt Q9NYL2).
Assay [6] deals with Tyrosine-protein kinase Fer (Homo sapiens, UniProt P16591).
Chain of Tyrosine-protein kinase Fer (P16591 whole entry): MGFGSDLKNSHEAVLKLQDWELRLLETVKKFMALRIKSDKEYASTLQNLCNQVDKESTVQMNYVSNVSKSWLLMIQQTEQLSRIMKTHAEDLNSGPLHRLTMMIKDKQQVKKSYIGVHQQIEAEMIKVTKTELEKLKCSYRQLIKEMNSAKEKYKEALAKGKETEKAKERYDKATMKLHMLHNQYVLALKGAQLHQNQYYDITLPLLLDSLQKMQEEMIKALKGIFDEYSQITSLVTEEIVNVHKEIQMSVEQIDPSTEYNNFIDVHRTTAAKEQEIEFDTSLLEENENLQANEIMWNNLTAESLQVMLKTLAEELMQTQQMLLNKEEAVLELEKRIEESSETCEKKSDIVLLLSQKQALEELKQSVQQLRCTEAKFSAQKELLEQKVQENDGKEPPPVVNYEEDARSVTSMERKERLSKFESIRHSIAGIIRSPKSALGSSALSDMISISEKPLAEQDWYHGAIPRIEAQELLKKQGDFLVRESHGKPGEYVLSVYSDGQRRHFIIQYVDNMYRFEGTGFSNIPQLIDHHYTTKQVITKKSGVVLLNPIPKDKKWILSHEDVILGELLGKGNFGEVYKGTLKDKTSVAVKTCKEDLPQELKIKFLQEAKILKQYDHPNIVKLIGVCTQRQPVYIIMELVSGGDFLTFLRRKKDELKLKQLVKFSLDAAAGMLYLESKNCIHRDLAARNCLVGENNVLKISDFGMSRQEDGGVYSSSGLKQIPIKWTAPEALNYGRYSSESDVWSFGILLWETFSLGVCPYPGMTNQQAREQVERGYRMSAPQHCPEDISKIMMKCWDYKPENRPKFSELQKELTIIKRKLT
Assay [7] deals with cAMP-dependent protein kinase catalytic subunit gamma (Homo sapiens, UniProt P22612).
Chain of cAMP-dependent protein kinase catalytic subunit gamma (P22612 whole entry): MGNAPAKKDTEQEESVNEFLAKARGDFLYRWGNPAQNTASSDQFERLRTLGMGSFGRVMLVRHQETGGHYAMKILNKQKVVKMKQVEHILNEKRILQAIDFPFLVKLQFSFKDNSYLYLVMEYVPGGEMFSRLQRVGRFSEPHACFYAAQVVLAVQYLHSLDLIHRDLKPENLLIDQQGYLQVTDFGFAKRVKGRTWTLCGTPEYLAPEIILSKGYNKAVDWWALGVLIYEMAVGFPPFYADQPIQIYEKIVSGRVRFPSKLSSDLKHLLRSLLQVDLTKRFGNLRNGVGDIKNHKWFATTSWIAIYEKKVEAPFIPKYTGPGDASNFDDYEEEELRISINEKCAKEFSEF
Assay [8] concerns the target Serine/threonine-protein kinase B-raf (Homo sapiens, UniProt P15056).
Assay [9] concerns the target Serine/threonine-protein kinase MRCK alpha (Homo sapiens, UniProt Q5VT25).
Assay [10] deals with Mitogen-activated protein kinase 9 (Homo sapiens, UniProt P45984).
Chain of Mitogen-activated protein kinase 9 (P45984 whole entry): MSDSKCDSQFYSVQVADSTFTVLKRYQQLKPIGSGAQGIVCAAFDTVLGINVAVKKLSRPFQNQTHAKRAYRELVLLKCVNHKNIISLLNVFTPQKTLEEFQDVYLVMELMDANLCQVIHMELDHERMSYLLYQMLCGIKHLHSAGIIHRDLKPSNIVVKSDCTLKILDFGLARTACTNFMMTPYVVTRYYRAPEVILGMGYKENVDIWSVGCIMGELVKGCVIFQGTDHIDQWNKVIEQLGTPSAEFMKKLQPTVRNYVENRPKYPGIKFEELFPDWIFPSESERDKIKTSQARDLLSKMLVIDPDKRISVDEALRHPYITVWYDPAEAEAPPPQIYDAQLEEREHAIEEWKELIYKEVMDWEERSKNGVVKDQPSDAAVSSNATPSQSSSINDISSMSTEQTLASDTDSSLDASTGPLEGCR
Assay [11] deals with Serine/threonine-protein kinase 10 (Homo sapiens, UniProt O94804).
Chain of Serine/threonine-protein kinase 10 (O94804 whole entry): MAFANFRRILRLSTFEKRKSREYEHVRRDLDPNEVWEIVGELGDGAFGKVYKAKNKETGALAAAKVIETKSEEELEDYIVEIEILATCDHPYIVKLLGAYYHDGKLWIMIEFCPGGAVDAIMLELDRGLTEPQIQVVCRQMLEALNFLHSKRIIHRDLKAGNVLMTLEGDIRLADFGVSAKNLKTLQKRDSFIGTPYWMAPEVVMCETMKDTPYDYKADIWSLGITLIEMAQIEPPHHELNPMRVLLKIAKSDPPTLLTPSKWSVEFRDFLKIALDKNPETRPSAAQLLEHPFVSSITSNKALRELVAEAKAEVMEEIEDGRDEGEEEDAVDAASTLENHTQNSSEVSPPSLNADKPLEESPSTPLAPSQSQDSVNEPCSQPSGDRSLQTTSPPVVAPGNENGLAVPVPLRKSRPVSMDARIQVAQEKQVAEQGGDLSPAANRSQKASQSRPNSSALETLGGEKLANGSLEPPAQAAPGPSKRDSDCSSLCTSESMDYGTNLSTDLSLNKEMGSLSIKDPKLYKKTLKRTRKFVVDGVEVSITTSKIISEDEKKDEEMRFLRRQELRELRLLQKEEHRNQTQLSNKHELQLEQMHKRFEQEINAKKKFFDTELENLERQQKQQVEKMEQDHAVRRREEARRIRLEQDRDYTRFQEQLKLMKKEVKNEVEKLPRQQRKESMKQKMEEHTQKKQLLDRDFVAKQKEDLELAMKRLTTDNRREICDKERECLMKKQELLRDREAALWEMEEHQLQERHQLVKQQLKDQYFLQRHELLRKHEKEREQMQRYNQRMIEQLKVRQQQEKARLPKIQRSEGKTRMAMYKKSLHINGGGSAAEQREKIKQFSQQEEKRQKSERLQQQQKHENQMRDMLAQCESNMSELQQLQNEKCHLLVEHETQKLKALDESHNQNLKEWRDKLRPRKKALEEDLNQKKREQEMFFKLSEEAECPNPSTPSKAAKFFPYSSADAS

As usually defined, the Kd is the concentration at which binding is half-saturated.

Calls of active or inactive are those of the source. Cut-off read from the data, not from the text of the source, for most assays here: actives have a measured Kd and inactives only a lower limit. Some results are limits rather than exact numbers.
Note: in the data inactive means no Kd found up to 30 µM.

Chain of Mitogen-activated protein kinase kinase kinase 20 (Q9NYL2 whole entry): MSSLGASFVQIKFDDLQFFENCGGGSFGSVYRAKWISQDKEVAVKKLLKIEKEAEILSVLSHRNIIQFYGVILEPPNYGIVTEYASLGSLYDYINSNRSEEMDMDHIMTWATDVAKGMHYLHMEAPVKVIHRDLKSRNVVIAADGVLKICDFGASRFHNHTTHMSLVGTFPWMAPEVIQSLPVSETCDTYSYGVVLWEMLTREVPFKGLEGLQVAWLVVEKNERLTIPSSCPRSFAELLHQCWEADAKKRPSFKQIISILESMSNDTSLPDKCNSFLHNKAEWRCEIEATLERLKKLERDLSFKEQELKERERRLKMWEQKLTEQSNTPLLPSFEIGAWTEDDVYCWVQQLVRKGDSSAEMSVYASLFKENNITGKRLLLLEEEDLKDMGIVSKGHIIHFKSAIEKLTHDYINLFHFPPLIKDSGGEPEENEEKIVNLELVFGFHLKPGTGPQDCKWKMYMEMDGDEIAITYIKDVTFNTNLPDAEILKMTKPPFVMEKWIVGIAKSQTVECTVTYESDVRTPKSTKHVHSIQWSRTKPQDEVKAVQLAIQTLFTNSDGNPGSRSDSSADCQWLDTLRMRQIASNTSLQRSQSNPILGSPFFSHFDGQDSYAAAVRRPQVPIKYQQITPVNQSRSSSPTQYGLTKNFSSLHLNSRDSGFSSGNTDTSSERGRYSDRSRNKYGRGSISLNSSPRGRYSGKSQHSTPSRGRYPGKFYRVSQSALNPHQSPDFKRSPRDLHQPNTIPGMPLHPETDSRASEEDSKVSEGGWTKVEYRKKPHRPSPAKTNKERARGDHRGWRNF
Chain of Serine/threonine-protein kinase MRCK alpha (Q5VT25 whole entry): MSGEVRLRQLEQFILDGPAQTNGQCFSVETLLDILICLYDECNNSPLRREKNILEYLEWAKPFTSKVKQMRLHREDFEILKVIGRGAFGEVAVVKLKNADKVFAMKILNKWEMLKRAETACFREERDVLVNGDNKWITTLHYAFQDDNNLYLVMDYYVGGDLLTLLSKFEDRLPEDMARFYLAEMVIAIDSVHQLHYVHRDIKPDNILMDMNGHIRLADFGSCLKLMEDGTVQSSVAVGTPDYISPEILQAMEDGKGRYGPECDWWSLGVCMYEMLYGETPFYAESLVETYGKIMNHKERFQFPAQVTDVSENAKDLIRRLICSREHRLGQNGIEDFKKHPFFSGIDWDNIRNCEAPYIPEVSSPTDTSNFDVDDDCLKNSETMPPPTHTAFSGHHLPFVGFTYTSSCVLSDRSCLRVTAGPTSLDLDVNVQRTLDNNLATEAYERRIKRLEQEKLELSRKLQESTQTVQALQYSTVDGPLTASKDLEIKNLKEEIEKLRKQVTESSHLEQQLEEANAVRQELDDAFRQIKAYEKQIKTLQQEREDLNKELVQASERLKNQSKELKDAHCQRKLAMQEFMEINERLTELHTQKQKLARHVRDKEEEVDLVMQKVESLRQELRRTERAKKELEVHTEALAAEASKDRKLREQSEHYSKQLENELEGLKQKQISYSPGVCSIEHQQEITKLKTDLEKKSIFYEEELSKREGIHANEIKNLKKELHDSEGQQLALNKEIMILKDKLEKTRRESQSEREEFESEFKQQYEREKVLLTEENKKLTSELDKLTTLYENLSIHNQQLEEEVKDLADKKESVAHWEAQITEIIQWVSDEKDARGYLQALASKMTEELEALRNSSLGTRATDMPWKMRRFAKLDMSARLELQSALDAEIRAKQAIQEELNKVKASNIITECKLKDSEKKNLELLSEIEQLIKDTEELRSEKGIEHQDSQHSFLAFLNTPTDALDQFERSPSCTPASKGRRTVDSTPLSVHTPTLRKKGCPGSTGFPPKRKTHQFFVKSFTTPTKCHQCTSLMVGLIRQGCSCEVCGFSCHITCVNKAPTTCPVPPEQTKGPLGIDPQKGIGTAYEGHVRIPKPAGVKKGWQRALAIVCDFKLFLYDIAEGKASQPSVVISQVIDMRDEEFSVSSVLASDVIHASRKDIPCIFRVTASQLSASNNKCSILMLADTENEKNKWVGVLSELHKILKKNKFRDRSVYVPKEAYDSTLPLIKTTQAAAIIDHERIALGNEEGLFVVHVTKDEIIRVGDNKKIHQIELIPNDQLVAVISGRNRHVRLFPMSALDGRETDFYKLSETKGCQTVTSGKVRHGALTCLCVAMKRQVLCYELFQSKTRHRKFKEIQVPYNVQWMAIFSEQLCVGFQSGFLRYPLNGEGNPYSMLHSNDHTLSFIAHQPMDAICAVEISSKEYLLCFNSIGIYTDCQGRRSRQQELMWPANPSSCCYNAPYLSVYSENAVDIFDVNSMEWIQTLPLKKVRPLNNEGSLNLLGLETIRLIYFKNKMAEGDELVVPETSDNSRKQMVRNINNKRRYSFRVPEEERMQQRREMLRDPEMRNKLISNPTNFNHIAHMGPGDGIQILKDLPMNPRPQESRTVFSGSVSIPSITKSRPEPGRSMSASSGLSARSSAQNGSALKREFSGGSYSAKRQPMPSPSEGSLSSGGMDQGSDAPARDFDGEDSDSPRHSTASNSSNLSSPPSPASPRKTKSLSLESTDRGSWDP

For the compound `C=CCN(/C=C1/C(=O)O[C@H](COC)[C@@]2(C)C1=C(O)C(=O)C1=C2[C@H](OC(C)=O)C[C@]2(C)C(=O)CC[C@@H]12)CC=C` [SONOLISIB], the Kd (in assay [1]; in assay [2]; in assay [3]; on TGF-beta receptor type-1; in assay [4]; in assay [5]) was > 30 µM (inactive) each time. The Kd was > 30 µM (inactive) in assay [6]; 0.007 µM in [7]; > 30 µM (inactive) in [8]; > 30 µM (inactive) in [9]; > 30 µM (inactive) in [10]; > 30 µM (inactive) in assay [11].

As for `O=C(NC[C@H](O)CO)c1ccncc1Nc1ccc(I)cc1F` [PIMASERTIB], the Kd (in assay [1]; in [2]; in assay [3]; at TGF-beta receptor type-1; in assay [4]; in [5]) was > 30 µM (inactive) each time. The Kd in assay [6], in assay [7], in assay [8], in assay [9], in [10] and in assay [11] was > 30 µM (inactive) in each case.

As to `CCc1cc2c(cc1N1CCC(N3CCOCC3)CC1)C(C)(C)c1[nH]c3cc(C#N)ccc3c1C2=O` [ALECTINIB], the Kd is > 30 µM (inactive) in assay [1]; > 30 µM (inactive) in [2]; > 30 µM (inactive) in [3]; > 30 µM (inactive) at TGF-beta receptor type-1; 2.6 µM (active) in assay [4]; > 30 µM (inactive) in assay [5]. In addition, the Kd was 3.76 µM (active) in [6]; > 30 µM (inactive) in assay [7]; > 30 µM (inactive) in assay [8]; > 30 µM (inactive) in [9]; > 30 µM (inactive) in assay [10]; > 30 µM (inactive) in [11].

With `Cc1c(NC(=O)OC[C@@H]2COCCN2)cn2ncnc(Nc3ccc4c(cnn4Cc4cccc(F)c4)c3)c12` [AC-480], the Kd (in [1]; in assay [2]; in assay [3]; on TGF-beta receptor type-1; in [4]; in assay [5]) was > 30 µM (inactive) each time. Also, the Kd in [6], in assay [7], in [8], in assay [9], in assay [10] and in assay [11] was > 30 µM (inactive) in each case.

For `COc1cc(Nc2ncc(F)c(Nc3ccc4c(n3)N(COP(=O)(O)O)C(=O)C(C)(C)O4)n2)cc(OC)c1OC` [FOSTAMATINIB], the Kd was > 30 µM (inactive) in assay [1]; > 30 µM (inactive) in assay [2]; 0.041 µM (active) in [3]; > 30 µM (inactive) on TGF-beta receptor type-1; > 30 µM (inactive) in [4]; > 30 µM (inactive) in assay [5]. Moreover, the Kd is > 30 µM (inactive) in assay [6]; > 30 µM (inactive) in [7]; > 30 µM (inactive) in assay [8]; > 30 µM (inactive) in assay [9]; 1.53 µM (active) in [10]; > 30 µM (inactive) in assay [11].

In the case of `COc1cccc2cc(-c3nc([C@H]4CC[C@H](C(=O)O)CC4)n4ncnc(N)c34)[nH]c12` [OSI-027], the Kd in assay [1] is > 30 µM (inactive); in assay [2], > 30 µM (inactive); in assay [3], > 30 µM (inactive); at TGF-beta receptor type-1 it was 0.78 µM (active); in assay [4], > 30 µM (inactive); in [5], > 30 µM (inactive). Also, the Kd in [6], in assay [7], in [8], in assay [9], in [10] and in assay [11] was > 30 µM (inactive) throughout.

`COc1ccc2c(OCc3nnc4ccc(-c5ccccc5)nn34)ccnc2c1` [AMG-208]: the Kd (in assay [1]; in [2]; in assay [3]; on TGF-beta receptor type-1; in [4]; in [5]) was > 30 µM (inactive) in each case. For the same compound, the Kd in assay [6] is > 30 µM (inactive); in [7], 0.002 µM; in assay [8] it was > 30 µM (inactive); in assay [9] it was > 30 µM (inactive); in assay [10], > 30 µM (inactive); in assay [11], > 30 µM (inactive).

In the case of `CC[C@@](C)(Nc1ccnc(-c2c[nH]c3ncccc23)n1)C(=O)NCC(F)(F)F` [DECERNOTINIB], the Kd was > 30 µM (inactive) in assay [1]; 0.426 µM (active) in assay [2]; > 30 µM (inactive) in [3]; > 30 µM (inactive) on TGF-beta receptor type-1; > 30 µM (inactive) in assay [4]; > 30 µM (inactive) in assay [5]. The Kd was > 30 µM (inactive) in [6]; > 30 µM (inactive) in assay [7]; > 30 µM (inactive) in [8]; 0.561 µM (active) in assay [9]; > 30 µM (inactive) in assay [10]; 0.071 µM (active) in assay [11].

On to `COc1cc2nccc(Oc3ccc(NC(=O)C4(C(=O)Nc5ccc(F)cc5)CC4)cc3)c2cc1OC` [CABOZANTINIB], for which the Kd is 2.46 µM (active) in [1]; > 30 µM (inactive) in assay [2]; > 30 µM (inactive) in [3]; > 30 µM (inactive) at TGF-beta receptor type-1; > 30 µM (inactive) in assay [4]; > 30 µM (inactive) in [5]. In addition, the Kd in assay [6], in assay [7], in assay [8], in assay [9], in assay [10] and in assay [11] was > 30 µM (inactive) in each case.

For the origin of these results see ChEMBL document CHEMBL3991601, “The target landscape of clinical kinase drugs” (Science, 2017).
